One block for each molecule: values may come before it.
Assays:
[1] = target: T1, 14-3-3σ•Task-3 ctp interaction (Homo sapiens, UniProt P31947); test: Fluorescence polarization (FP) of fluorescein-labeled Task-3 ctp titrated with 14-3-3σ; format: binding; conditions: for screen for functional interaction with 14-3-3σ•Task-3 ctp complex (result in words): library screen of 8a-j, 9-11, FIG. 3
T1 construct: made in house; host or cells: E. coli BL21
Method: (§1) Replicated in this example was Ottmann's characterization of interactions between 14-3-3σ and a synthetic hexapeptide of Task-3 containing the putative C-terminal 14-3-3-interaction motif KRRK-pS-V (Task-3 ctp). (Anders, C. et al., Chem. Biol. 2013, 13, 583-593).
(§2) Recombinant human 14-3-3σ was prepared using a bacterial expression protocol, which routinely produced 15 mg/L of purified protein. Recombinant 14-3-3σ was expressed in BL21 E. Coli cells and purified by Ni-affinity chromatography.
The titration protocol was adapted to 96-well plate format using fluorescence polarization (FP) experiments. FP measurements of fluorescein-labeled Task-3 ctp, in the absence and presence of 100 μM fusicoccin A (1), titrated with 14-3-3σ were used to obtain the apparent Kd of the 14-3-3σ•Task-3 ctp interaction. […] Also collected were FP measurements of fluorescein-labeled c-Raf peptide, in the absence and presence of 100 μM fusicoccin A (1), titrated with 14-3-3σ to obtain the apparent Kd of the 14-3-3σ•c-Raf peptide interaction.
Error bars indicate the mean±SD of three independent experiments.
In view of the foregoing control data, a library of synthetic derivatives, including 8a-j, 9-11, was screened for functional interactions 14-3-3σ•Task-3 ctp complex. […]

14-3-3σ•Task-3 ctp = target: T2, 14-3-3σ•Task-3 ctp (Homo sapiens, UniProt P31947); test: Isothermal titration calorimetry (ITC) of Task-3 ctp with 14-3-3σ in the presence and absence of fusicoccin A; format: binding; conditions: 100 μM fusicoccin A vs absence
T2 construct: made in house; host or cells: E. coli BL21
Method: as §1, §2
This was determined by the association of ITC binding isotherms for Task-3 ctp with 14-3-3σ in the presence and absence of 100 μM of fusicoccin A (1).

14-3-3•PMA2 complex = conditions: background statement; cited from earlier work

T1 sequence (P31947 whole entry, other chains not shown): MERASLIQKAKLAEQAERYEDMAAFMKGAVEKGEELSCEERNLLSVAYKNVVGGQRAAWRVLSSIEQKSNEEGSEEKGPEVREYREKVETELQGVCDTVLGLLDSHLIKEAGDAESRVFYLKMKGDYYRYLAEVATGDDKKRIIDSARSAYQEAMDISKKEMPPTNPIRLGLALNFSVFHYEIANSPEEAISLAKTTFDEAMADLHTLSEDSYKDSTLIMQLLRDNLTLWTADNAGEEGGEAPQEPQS
T2 sequence (P31947 whole entry, other chains not shown): as above

Structure (SMILES): CC1CC(=O)C2C3C=CC4(CCCC4CC12)O3 (racemic) [compound 9, (±)-9-Methyl-1,2,3,6,6a,8,9,9a, 10,10a-decahydro-7H-3a,6-epoxydicyclopenta[a,d] [8]annulen-7-one]
- melting point: 88.9 to 91.3 °C

Structure (SMILES): C=C(C)C1=C2[C@H]3C=C[C@]4(CCC[C@H]4C[C@@]2(C)CC1)O3 (racemic) [compound 11]
- fold enhancement of apparent affinity of Task-3 ctp to 14-3-3σ ([1]; FP, DMSO (10%) in buffer, 1.6 mM compound): 1.2 fold
- screen for functional interaction with 14-3-3σ•Task-3 ctp complex (result in words) [1]: increase the apparent affinity

Structure (SMILES): C=CC(C)(C)OC[C@H]1O[C@H](O[C@@H]2C3=C([C@H](C)COC(C)=O)C[C@H](O)[C@]3(C)/C=C3/[C@@H](COC)CC[C@H]3[C@@H](C)[C@H]2O)[C@H](O)[C@@H](OC(C)=O)[C@@H]1O [fusicoccin A, reference compound]
- fold stabilization of 14-3-3σ•Task-3 ctp (14-3-3σ•Task-3 ctp): 152 fold
- fold enhancement of apparent affinity of Task-3 ctp to 14-3-3σ ([1]; FP, 100 μM fusicoccin A): 37 fold
- EC50 ([1]; FP, fluorescein-labeled Task-3 ctp and 14-3-3σ titrated with compound, mean±SD of three experiments, read-out: EC50 of stabilization of the 14-3-3σ•Task-3 ctp complex): 1.4 ± 0.3 µM
- prolongation of the lifetime of the 14-3-3•PMA2 complex (14-3-3•PMA2 complex): 90 fold

Now from value to molecule:

- melting point: 50.8 to 51.3 °C
Structure (SMILES): O=C1CCC2=C1[C@H]1C=C[C@]3(CCC[C@H]3C2)O1 (racemic) [compound 8a, (±)-1,2,3,6,8,9,10,10a-octahydro-7H-3a,6-epoxydicyclopenta[a,d] [8]annulen-7-one]

- fold enhancement of apparent affinity of Task-3 ctp to 14-3-3σ ([1]; FP, DMSO (10%) in buffer, 6.3 mM compound): 1.1 fold
- screen for functional interaction with 14-3-3σ•Task-3 ctp complex (result in words) [1]: increase the apparent affinity
Structure (SMILES): O=C1CCC2=C1[C@@]1(CN3CCOCC3)C=C[C@]3(CCC[C@H]3C2)O1 [compound 8f]
